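Compound exposure: 48 hours, 5 concentrations, 96-well plates. GI50 is the concentration that inhibits growth by half. Definition used: TGI = concentration required for complete inhibition of growth.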
How the values were obtained:
Experiment in all cases: growth of human tumour cells (NCI), 48 h
HOP-92 NSCLC = system: HOP-92 NSCLC
K-562 leukemia = system: K-562 leukemia
OVCAR-4 ovarian = system: OVCAR-4 ovarian
OVCAR-8 ovarian = system: OVCAR-8 ovarian
SW-620 colon = system: SW-620 colon
U251 CNS = system: U251 CNS
UACC-62 melanoma = system: UACC-62 melanoma
KM12 colon = system: KM12 colon

| SMILES | GI50 (HOP-92 NSCLC) | TGI (HOP-92 NSCLC) | GI50 (K-562 leukemia) | TGI (K-562 leukemia) | GI50 (OVCAR-4 ovarian) | TGI (OVCAR-4 ovarian) | GI50 (OVCAR-8 ovarian) | TGI (OVCAR-8 ovarian) | GI50 (SW-620 colon) | TGI (SW-620 colon) | GI50 (U251 CNS) | TGI (U251 CNS) | GI50 (UACC-62 melanoma) | TGI (UACC-62 melanoma) | GI50 (KM12 colon) | TGI (KM12 colon) |
| --- | --- | --- | --- | --- | --- | --- | --- | --- | --- | --- | --- | --- | --- | --- | --- | --- |
| N#Cc1c(N)nc(N2CCOCC2)c(C#N)c1-c1cccc(O)c1 | 37.6 µM | > 100 µM | > 100 µM | > 100 µM | 26.5 µM | > 100 µM | > 100 µM | > 100 µM | > 100 µM | > 100 µM | > 100 µM | > 100 µM | 40.8 µM | > 100 µM | – | – |
| C=C1C(=O)O[C@H]2[C@H]1CC/C(COC(=O)NCCc1c[nH]c3ccccc13)=C\CC[C@@]1(C)O[C@@H]21 | 1.27 µM | 3.07 µM | 0.503 µM | 10.4 µM | 2.96 µM | 13.1 µM | 1.86 µM | 5.21 µM | 1.2 µM | 2.81 µM | 4.88 µM | 17.1 µM | 1.47 µM | 3.2 µM | 5.41 µM | 21.4 µM |
| COc1cc(C(=O)O)ccc1NC(=O)[C@@H]1N[C@@H](CC(C)(C)C)[C@](C#N)(c2ccc(Cl)cc2F)[C@H]1c1cccc(Cl)c1F | 2.48 µM | 5.15 µM | 4.15 µM | > 100 µM | 4.56 µM | 29.6 µM | 4.08 µM | 23 µM | 3.02 µM | > 26.3 µM | 3.16 µM | 11 µM | 0.0909 µM | 2.13 µM | 2.58 µM | > 24.2 µM |
| N#C/C(=C\c1ccc(Cl)cc1)n1nnc2cc(F)c(F)cc21 | 1.07 µM | 2.56 µM | 2.19 µM | > 100 µM | 1.59 µM | 3.48 µM | 3.27 µM | > 100 µM | 1.72 µM | 3.46 µM | 1.62 µM | 3.06 µM | 1.8 µM | 3.96 µM | 1.95 µM | 4.29 µM |
| COc1ccc2c(c1)/C(=C/c1c(-c3ccc(C)cc3)nc3sc(C)cn13)C(=O)N2 | 10.3 µM | 60.5 µM | 4.95 µM | > 100 µM | 14.2 µM | > 100 µM | 12.4 µM | > 100 µM | 16.8 µM | > 100 µM | – | – | 13.1 µM | 32.5 µM | 23.1 µM | > 100 µM |
| O=C1CN2CCC1C/C2=C\c1ccnc2c(Cl)cccc12 (stereo unspecified) | 37 µM | > 100 µM | 32.2 µM | > 100 µM | 42.5 µM | > 100 µM | 61.6 µM | > 100 µM | > 100 µM | > 100 µM | 64.4 µM | > 100 µM | > 100 µM | > 100 µM | 56.8 µM | > 100 µM |
| O=C(c1cccs1)c1c(C(F)(F)F)n([O-])c2cc(C(F)(F)F)ccc2[n+]1=O | 0.172 µM | 0.342 µM | 0.0303 µM | 0.101 µM | – | – | 0.263 µM | 1.48 µM | 0.14 µM | 0.304 µM | 0.153 µM | 0.288 µM | 0.462 µM | 1.28 µM | 0.183 µM | 0.38 µM |

From PubChem BioAssay (NCI)
